Source: a melting point compilation (Tetko et al.; mined from patent text by program, amines drawn as free bases though some values may be those of a salt)

First: Cc1cc(C(=O)N(O)C2CCCCC2)c(C)o1
Second: CNC(=O)n1sc(OC2CCCCC2)nc1=O
The melting point of the first is higher: 135 to 137 °C for the first, 121 °C for the second.

Compared with `CC(Oc1cccc(Cl)c1)c1ccnc2ncnn12` (stereo unspecified), `C[C@@H](Nc1ncnc2ccncc12)c1ccccc1` is higher in melting point: 124 to 126 °C for the first, 138 °C for the second.

Compared with `COc1cc(N)c(Cl)cc1C(=O)NCC1CCN(CCCCCOc2cccc3ccccc23)CC1`, `COc1ccccc1N1CCN(CCCNC(=O)c2cccc3c(=O)c(C)c(C4CC4)oc23)CC1` is higher in melting point: 91 to 93 °C for the first, 139 to 141 °C for the second.

Compared with `C[Si](C)(C)CCCCNC(=O)n1cc(F)c(=O)[nH]c1=O`, `CC(C)OC(=O)n1cc(F)c(N)nc1=O` is higher in melting point: 129 to 132 °C for the first, 217 to 219 °C for the second.

Compared with `CC(C)OC1CCC(=O)N1` (stereo unspecified), `O=C1CCC(CC(O)C(=O)OCc2ccccc2)N1` (stereo unspecified) is higher in melting point: 68 to 71 °C for the first, 95 to 96 °C for the second.

First: Cc1[nH]c2ccccc2c1CCCN1CCC(c2noc3cc(Cl)ccc23)CC1
Second: O=CN1CCC(c2noc3cc(Cl)ccc23)CC1
The melting point of the first is lower: 108 to 110 °C for the first, 114 to 115 °C for the second.

First: O=C(NC(=O)N(Sc1ccccc1[N+](=O)[O-])c1ccc(Cl)cc1)c1c(F)cccc1F
Second: COC(=O)C(Cc1ccc(OCCN(C)c2nc3ccccc3o2)cc1)Oc1ccc(Cl)cc1 (stereo unspecified)
The melting point of the first is higher: 176 to 178 °C for the first, 88 to 90 °C for the second.

First: O=C(Nc1cccc(F)c1)NC1CCN(S(=O)(=O)c2cccc(C(F)(F)F)c2)CC1
Second: CC1(C)CN=C2C(=O)c3cc(S(=O)(=O)N4CCc5ccccc54)ccc3N2C1
The melting point of the first is lower: 86 to 88 °C for the first, 170 to 171 °C for the second.

Compared with `O=C(CCCC=CCC1C(O)CC(O)C1C=CC(O)CCc1ccccc1)ON1C(=O)c2ccccc2C1=O` (stereo unspecified), `CC(C)CC1(C(CCN2C(=O)c3ccccc3C2=O)C(=O)NO)CCN(CCc2ccccc2)C1=O` (stereo unspecified) is higher in melting point: 83.2 to 84.5 °C for the first, 102 to 105 °C for the second.

First: N/C(=C1/Sc2ccc(Cl)cc2C1=O)c1ccccc1
Second: O=C(c1ccccc1Cl)c1cc(Cl)ccc1-n1ccnc1
The melting point of the first is higher: 172 to 173 °C for the first, 146 to 148 °C for the second.

First: C=CCOC(=O)C1=C(C)NC(C)=C(C(=O)OCC=C)C1c1ccccc1Cl
Second: CC(=O)Oc1ccccc1C(=O)Nc1cc(Cl)c(OC(C)=O)c(Cl)c1
The melting point of the first is lower: 98 to 99 °C for the first, 154 to 156 °C for the second.

First: COC(=O)c1ccc(C(=O)c2c(C)c(OCc3cccc(OC)c3)c3ccccn23)cc1
Second: COc1ccc(C(=O)c2ccccn2)cc1
The melting point of the first is higher: 106 °C for the first, 96 to 98 °C for the second.

Compared with `O=C(Nc1ccccc1)N1CCc2[nH]cc3c(=O)n(-c4ccc(Cl)cc4)nc-3c2C1`, `O=C(NCc1ccccc1)c1ccnc(-n2cnn(Cc3ccc(F)cc3)c2=O)c1` is lower in melting point: 293 to 295 °C for the first, 173 to 175 °C for the second.

First: Cc1oc(C=Cc2cccc(Cl)c2)nc1CC#N
Second: CC(=O)C(C#N)c1cccc(Cl)c1 (stereo unspecified)
The melting point of the first is higher: 119 to 120 °C for the first, 92 to 97 °C for the second.

First: COC(=O)c1cccc(CN2C(=O)C3(COc4cc5c(cc43)OCCO5)c3ccccc32)c1 (stereo unspecified)
Second: Cc1cc(C)cc(C(=O)P2(=O)Oc3ccccc3-c3ccccc32)c1 (stereo unspecified)
The melting point of the first is lower: 89 to 97 °C for the first, 120 to 124 °C for the second.

First: CC(C(=O)CC#N)c1ccc(-c2ccccc2)c(F)c1 (stereo unspecified)
Second: CC(c1ccccc1)c1ccc(N)c([N+](=O)[O-])c1 (stereo unspecified)
The melting point of the first is lower: 84 to 85 °C for the first, 96 to 98 °C for the second.

Compared with `COC(=O)C(C#N)=Cc1cc(OC)c(OC)cc1[N+](=O)[O-]`, `COC(=O)CCn1ccc2cc([N+](=O)[O-])ccc21` is lower in melting point: 162 to 164 °C for the first, 97 to 99 °C for the second.

First: CC(=O)Oc1cccc(C(=O)N[C@@H](Cc2ccccc2)[C@H](O)C(=O)O)c1C
Second: CCOC(=O)c1cnc2c(OCc3ccccc3)c(F)c(F)cc2c1O
The melting point of the first is lower: 189 to 191 °C for the first, 200 to 201 °C for the second.

Compared with `CCCNc1c2ccccc2nc2c1c(C)nn2-c1ccccn1`, `Cc1[nH]c(=S)n(Nc2cccc(F)c2)c1-c1ccccc1` is higher in melting point: 121 to 122 °C for the first, 226 °C for the second.

First: CC(C)CCCC(C)C1CCC2C3CC=C4CC(NC(=O)CCNC(=O)CCCCCNc5ccc([N+](=O)[O-])cc5[N+](=O)[O-])CCC4(C)C3CCC12C (stereo unspecified)
Second: CCCCNc1cc(C(=O)O)cc(S(=O)(=O)NCCCC)c1Sc1ccc(N)cc1
The melting point of the first is lower: 197 to 198 °C for the first, 198 to 200 °C for the second.

First: CCOC(=O)c1c(CSc2ccccc2)n(C)c2cc(Br)c(O)c(CN(C)C)c12
Second: CN(C)CCOc1ccc2[nH]c(C(=O)N3CC(CCl)c4c3cc(N)c3ccccc43)cc2c1 (stereo unspecified)
The melting point of the first is lower: 127 to 128 °C for the first, over 250 °C for the second.

First: C[C@@H](n1cnc2c(Cl)cccc2c1=O)[C@](O)(Cn1cncn1)c1ccc(F)cc1F
Second: COc1ccc(O)c(C2C(=O)N(Cc3ccc(C(F)(F)F)o3)c3cccc(Cl)c32)n1 (stereo unspecified)
The melting point of the first is lower: 110 to 113 °C for the first, 151 to 152 °C for the second.

First: CC(C)c1cccc(C(C)C)c1NC(=O)NCC1(Nc2ccc(I)cc2)CCCC1
Second: COc1ccc(-c2nc(CNC(=O)NC(C)C)sc2-c2ccc(OC)cc2)cc1
The melting point of the first is higher: 176 °C for the first, 146 to 149 °C for the second.

First: NC(=O)N(O)Cc1ccc(OCCc2csc(-c3ccc(C(F)(F)F)cc3)n2)cc1
Second: COc1ccc(-c2cc(-c3nc(C)cs3)c(=O)n(C)c2-c2ccnnc2)cc1
The melting point of the first is lower: 146 to 147 °C for the first, 271 °C for the second.

First: CC(CNc1ccc(C(=O)O)cc1)Oc1ccc(F)cc1 (stereo unspecified)
Second: COC(=O)c1ccc(OC(=O)Cl)cc1
The melting point of the first is higher: 171 to 172 °C for the first, 52 to 53 °C for the second.

Compared with `CC(C)NC1=NS(=O)(=O)c2cc(N)ccc2N1`, `CC=Cc1c(NC(=O)C(F)(F)F)ccc2c(=O)cc(C(=O)OCC)oc12` is lower in melting point: 278 to 283 °C for the first, 140 to 141 °C for the second.

Compared with `CC1(C)OCC(COc2cc(O)nc(N)n2)O1` (stereo unspecified), `NCC(O)C1COc2ccccc2O1` (stereo unspecified) is lower in melting point: 258 °C for the first, 86 to 88 °C for the second.

Compared with `COc1ccc(N2CCN(c3c(C)c(C)c4c(c3C)CC(C)(CN3CCOCC3)O4)CC2)cc1` (stereo unspecified), `CCc1nc2c(cnn2CC)c(NC2CCOCC2)c1CNC(=O)c1cccc(C(=O)NCc2ccc(OC)c(-c3cccc(C=O)c3)c2)c1` is lower in melting point: 137 to 142 °C for the first, 118 to 121 °C for the second.

First: CS(=O)c1cc(CCC(=O)O)nc(-c2nc(=O)c3ccccc3s2)c1 (stereo unspecified)
Second: O=C(Cc1c(F)c(F)nc(F)c1Cl)OCc1ccccc1
The melting point of the first is higher: 266 °C for the first, 87 to 92 °C for the second.

Going from `CC(S)C(=O)NCCS` (stereo unspecified) to `CC(=O)N(C)C(CCl)C(=O)O` (stereo unspecified), the melting point rises from 53 °C to 104 °C.

`CCC(OC(C)C)c1cc(C(=O)OC)c(N)cc1C(F)(F)F` (stereo unspecified) and `COc1cc(C(C)C(=O)NCC(COC(=O)C(C)(C)C)Cc2ccc(C(C)(C)C)cc2)ccc1NS(C)(=O)=O` (stereo unspecified) cannot be ordered by melting point: 54 to 56 °C for the first, 54 to 57 °C for the second.

First: c1ccc(COc2ccc(Cc3nnc(Nc4ccc5c(c4)ncn5-c4ccccc4)c4ccccc34)cc2)cc1
Second: CC(C)(C)c1cn(Cc2ccccc2)c([C@@H](Cc2c[nH]c3ccccc23)NCc2ccccc2)n1
The melting point of the first is higher: 229 to 231 °C for the first, 60 to 62 °C for the second.

First: N#Cc1c(N2CCCCC2)c(C(=O)OCCO)c2ccccn2c1=O
Second: N#Cc1ccc2c(c1)C(=O)CC1(CCCCC1)O2
The melting point of the first is higher: 140 to 141 °C for the first, 92 to 93 °C for the second.

First: CNC(=S)NCCS(=O)Cc1nc[nH]c1C (stereo unspecified)
Second: CCC(C)(CC)NC(=S)Nc1cc(Cl)cc(Cl)c1
The melting point of the first is higher: 139 to 140 °C for the first, 128 to 132 °C for the second.

Compared with `CC(C)ON=C(C(=O)O)c1ccccc1`, `O=C(c1ccccc1)c1cc2ccncc2[nH]1` is higher in melting point: 59.5 °C for the first, 245 to 247 °C for the second.

Compared with `COc1ccc2c(c1OC)SCCC2C#N` (stereo unspecified), `C=CCOc1ccc(C(=O)C=Cc2ccc(OC)cc2OC)cc1` is lower in melting point: 116 to 118 °C for the first, 74.5 to 75 °C for the second.

First: Cn1nc(Br)c(Br)c1Br
Second: O=[N+]([O-])c1ccc(Br)c2nsnc12
The melting point of the first is lower: 85 to 86 °C for the first, 216 to 218 °C for the second.

Compared with `CC(=O)Oc1c2c(c3ccccc3c1OC(=O)CNC(=O)OC(C)(C)C)OC(C)(C)CC2`, `CC(=O)Oc1c(C(C)C)cc(NC(=O)Nc2cnc3c(C)cc(C)cc3c2-c2ccccc2Cl)cc1C(C)C` is higher in melting point: 177 °C for the first, 248 to 249 °C for the second.

Compared with `CC(=O)c1ccc2c(c1)C(Cl)Cc1ccc(F)cc1S2` (stereo unspecified), `NCC1COc2cc(F)cc(-c3ccccc3Cl)c2N1` (stereo unspecified) is lower in melting point: 112 to 114 °C for the first, 86 °C for the second.

First: CC1C(=O)Oc2cc(N(Cc3ccccc3)Cc3ccccc3)ccc21 (stereo unspecified)
Second: CNc1nc(=O)n(CCCN2CCN(C(c3ccccc3)c3ccccc3)CC2)c2ccccc12
The melting point of the first is lower: 111 to 112 °C for the first, 238 to 240 °C for the second.

First: COCSCCNC(=C[N+](=O)[O-])NCC(O)c1ccccc1 (stereo unspecified)
Second: CCC(C(=O)Nc1ccc2cc[nH]c2c1)c1ccccc1 (stereo unspecified)
The melting point of the first is lower: 107 to 110 °C for the first, 143 to 144 °C for the second.

Compared with `CC1=C(C2C=CN(C(=O)OCC(Cl)(Cl)Cl)c3ccccc32)SCC(=O)N1` (stereo unspecified), `Cc1ccc(C2c3[nH]c4ccccc4c3CCN2C(=O)C=Cc2cc([N+](=O)[O-])ccc2Cl)cc1` (stereo unspecified) is higher in melting point: 166 to 167 °C for the first, 211 to 213 °C for the second.

First: CC1=C(C#CC(C)C=CO)C(C)(C)CCC1=O (stereo unspecified)
Second: COc1ccc2c(=O)n3cccc3oc2c1
The melting point of the first is lower: 102 to 105 °C for the first, 128 to 129 °C for the second.

First: O=C(Oc1ccc(Cl)cc1)c1cccc(Cl)c1
Second: NC1=NN(c2cccc(Cl)n2)C(c2ccc(Cl)cc2)C1 (stereo unspecified)
The melting point of the first is lower: 72 °C for the first, 157 to 158 °C for the second.

Compared with `CCCCNN1C=c2cc(-c3c(Cl)cccc3Cl)c(=O)n(C)c2=NC1`, `N#CCCNC(=O)c1cccc(-c2ccc3c(n2)N(Cc2ccc(Cl)cc2Cl)CC3)c1` is lower in melting point: 184 to 186 °C for the first, 156 to 157 °C for the second.

First: NC(=S)c1cn(COC(CO)CO)c2ncnc(N)c12
Second: O=C(OCCc1c(-c2ccccc2)n2nnnc2n2ncnc12)C12CC3CC(CC(C3)C1)C2
The melting point of the first is higher: 180 to 181 °C for the first, 129 to 130 °C for the second.

First: OC(CCl)CNc1nc2ccnc(-c3cccc(C(F)(F)F)c3)n2n1 (stereo unspecified)
Second: c1ccc2c(c1)c1nncn1c1c(-c3noc(C4CC4)n3)ncn21
The melting point of the first is lower: 141 to 142 °C for the first, 308 to 314 °C for the second.

Compared with `O=c1cc(SCc2ccc(O)cc2)oc2cc(O)cc(O)c12`, `CCn1ccc(Nc2cc(-c3cccc(N4Cc5cc(C(C)(C)C)ccc5C4=O)c3CO)cn(C)c2=O)n1` is lower in melting point: 222 to 225 °C for the first, 175 to 177 °C for the second.

First: N#CCCCCCCc1nc(-c2ccc(Cl)cc2)c(-c2ccc(Cl)cc2)o1
Second: CNC(=O)c1ccc(Cl)cc1
The melting point of the first is lower: 64 °C for the first, 158 to 161 °C for the second.

Compared with `CCCc1c(O)c(C(C)=O)cc(Br)c1OCCCOc1c(C(C)=O)ccc(OCC(=O)O)c1CCC`, `COc1cc(Cc2cnc(NCCSCc3nccs3)[nH]c2=O)ccn1` is lower in melting point: 129 to 130 °C for the first, 106 °C for the second.

Compound `Fc1cccc(C2(N3CCC3)CCC3(CC2)NCCc2c3[nH]c3ccccc23)c1` (stereo unspecified) has a melting point of 186 to 188 °C.
